Assay results reported in ChEMBL document CHEMBL5442219.

Key:
Details in all cases: Compound concentration 10 µM
[1] = molecular target: Beta-2 adrenergic receptor (Homo sapiens) (UniProt P07550)
[2] = molecular target: T1, Muscarinic acetylcholine receptor M1 (Homo sapiens) (UniProt P11229)
T1 sequence (whole entry): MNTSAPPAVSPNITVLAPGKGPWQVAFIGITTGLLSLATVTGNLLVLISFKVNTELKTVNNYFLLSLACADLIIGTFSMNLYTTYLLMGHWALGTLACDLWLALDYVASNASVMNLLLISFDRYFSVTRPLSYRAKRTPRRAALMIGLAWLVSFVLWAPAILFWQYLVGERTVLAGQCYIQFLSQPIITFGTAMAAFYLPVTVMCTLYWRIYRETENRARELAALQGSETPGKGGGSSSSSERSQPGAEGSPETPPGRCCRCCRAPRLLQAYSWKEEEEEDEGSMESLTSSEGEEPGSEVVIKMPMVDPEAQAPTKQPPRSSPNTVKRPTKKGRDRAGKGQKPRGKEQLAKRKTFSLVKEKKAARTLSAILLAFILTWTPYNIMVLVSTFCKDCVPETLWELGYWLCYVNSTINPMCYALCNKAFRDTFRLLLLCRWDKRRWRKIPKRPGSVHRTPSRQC

[3] = molecular target: Muscarinic acetylcholine receptor M3 (Homo sapiens) (UniProt P20309)
[4] = molecular target: Histamine H3 receptor (Homo sapiens) (UniProt Q9Y5N1)
[5] = molecular target: Histamine H4 receptor (Homo sapiens) (UniProt Q9H3N8)
[6] = molecular target: 5-hydroxytryptamine receptor 2A (Homo sapiens) (UniProt P28223)
[7] = molecular target: T2, 5-hydroxytryptamine receptor 2C (Homo sapiens) (UniProt P28335)
T2 sequence (whole entry): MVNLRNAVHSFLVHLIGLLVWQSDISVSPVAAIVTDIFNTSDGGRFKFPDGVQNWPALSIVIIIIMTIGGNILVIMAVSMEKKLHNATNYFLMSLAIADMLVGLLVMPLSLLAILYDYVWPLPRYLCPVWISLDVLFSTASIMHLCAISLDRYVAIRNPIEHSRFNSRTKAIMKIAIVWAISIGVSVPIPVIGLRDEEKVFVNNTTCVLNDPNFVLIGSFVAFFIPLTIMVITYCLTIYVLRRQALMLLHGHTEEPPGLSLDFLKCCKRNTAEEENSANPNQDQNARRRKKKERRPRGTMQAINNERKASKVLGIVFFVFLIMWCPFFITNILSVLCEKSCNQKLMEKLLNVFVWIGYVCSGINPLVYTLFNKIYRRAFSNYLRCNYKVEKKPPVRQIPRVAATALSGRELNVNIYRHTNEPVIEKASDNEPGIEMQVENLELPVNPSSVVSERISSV

[8] = molecular target: 5-hydroxytryptamine receptor 6 (Homo sapiens) (UniProt P50406)
[9] = molecular target: 5-hydroxytryptamine receptor 7 (Homo sapiens) (UniProt P34969)
[10] = molecular target: Sigma intracellular receptor 2 (Homo sapiens) (UniProt Q5BJF2)
[11] = molecular target: Beta-3 adrenergic receptor (Homo sapiens) (UniProt P13945)
[12] = molecular target: T3, Alpha-2B adrenergic receptor (Homo sapiens) (UniProt P18089)
T3 sequence (whole entry): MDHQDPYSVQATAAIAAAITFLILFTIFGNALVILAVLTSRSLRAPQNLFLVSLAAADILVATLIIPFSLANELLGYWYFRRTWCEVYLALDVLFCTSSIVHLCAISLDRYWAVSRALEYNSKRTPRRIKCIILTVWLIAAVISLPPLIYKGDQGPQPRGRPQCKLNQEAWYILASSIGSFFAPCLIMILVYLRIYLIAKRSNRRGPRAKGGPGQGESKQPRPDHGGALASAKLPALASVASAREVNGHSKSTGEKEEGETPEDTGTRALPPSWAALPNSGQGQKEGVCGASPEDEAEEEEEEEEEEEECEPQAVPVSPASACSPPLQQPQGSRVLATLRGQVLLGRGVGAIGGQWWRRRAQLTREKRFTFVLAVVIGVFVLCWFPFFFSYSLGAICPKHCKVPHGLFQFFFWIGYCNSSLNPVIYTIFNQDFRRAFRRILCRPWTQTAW

[13] = molecular target: Delta-type opioid receptor (Homo sapiens) (UniProt P41143)
[14] = molecular target: Mu-type opioid receptor (Homo sapiens) (UniProt P35372)
[15] = molecular target: T4, Alpha-1D adrenergic receptor (Homo sapiens) (UniProt P25100)
T4 sequence (whole entry): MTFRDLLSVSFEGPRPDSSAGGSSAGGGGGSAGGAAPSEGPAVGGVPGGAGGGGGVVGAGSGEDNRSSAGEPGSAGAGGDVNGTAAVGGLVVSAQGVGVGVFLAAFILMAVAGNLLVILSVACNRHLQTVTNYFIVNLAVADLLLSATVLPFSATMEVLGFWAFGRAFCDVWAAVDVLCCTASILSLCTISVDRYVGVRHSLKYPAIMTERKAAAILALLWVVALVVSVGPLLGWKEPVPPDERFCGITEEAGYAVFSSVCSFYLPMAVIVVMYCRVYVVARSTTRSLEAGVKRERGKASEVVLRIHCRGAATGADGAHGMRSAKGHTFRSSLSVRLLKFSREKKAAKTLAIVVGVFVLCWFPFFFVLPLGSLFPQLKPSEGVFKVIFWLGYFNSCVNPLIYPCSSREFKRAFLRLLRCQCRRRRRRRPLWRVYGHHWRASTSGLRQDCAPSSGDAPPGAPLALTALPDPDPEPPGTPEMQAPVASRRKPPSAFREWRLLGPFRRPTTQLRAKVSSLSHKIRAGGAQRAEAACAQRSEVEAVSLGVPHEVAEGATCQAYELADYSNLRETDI

[16] = molecular target: 5-hydroxytryptamine receptor 1D (Homo sapiens) (UniProt P28221)
[17] = molecular target: D(1B) dopamine receptor (Homo sapiens) (UniProt P21918)

5-hydroxytryptamine receptor 2A (Homo sapiens), sequence (P28223 whole entry): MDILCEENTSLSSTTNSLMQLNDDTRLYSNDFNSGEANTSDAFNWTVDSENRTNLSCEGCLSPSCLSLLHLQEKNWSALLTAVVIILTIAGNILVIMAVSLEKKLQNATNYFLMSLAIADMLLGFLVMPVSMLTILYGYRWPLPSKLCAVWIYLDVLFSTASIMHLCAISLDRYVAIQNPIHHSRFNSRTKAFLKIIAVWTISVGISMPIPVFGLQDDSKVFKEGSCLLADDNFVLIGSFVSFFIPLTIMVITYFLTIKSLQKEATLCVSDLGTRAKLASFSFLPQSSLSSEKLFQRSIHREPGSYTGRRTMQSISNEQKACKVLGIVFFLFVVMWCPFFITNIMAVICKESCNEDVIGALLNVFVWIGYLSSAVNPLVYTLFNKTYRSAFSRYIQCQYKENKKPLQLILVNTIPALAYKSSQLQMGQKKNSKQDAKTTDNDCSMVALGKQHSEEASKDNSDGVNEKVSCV
Histamine H4 receptor (Homo sapiens), sequence (Q9H3N8 whole entry): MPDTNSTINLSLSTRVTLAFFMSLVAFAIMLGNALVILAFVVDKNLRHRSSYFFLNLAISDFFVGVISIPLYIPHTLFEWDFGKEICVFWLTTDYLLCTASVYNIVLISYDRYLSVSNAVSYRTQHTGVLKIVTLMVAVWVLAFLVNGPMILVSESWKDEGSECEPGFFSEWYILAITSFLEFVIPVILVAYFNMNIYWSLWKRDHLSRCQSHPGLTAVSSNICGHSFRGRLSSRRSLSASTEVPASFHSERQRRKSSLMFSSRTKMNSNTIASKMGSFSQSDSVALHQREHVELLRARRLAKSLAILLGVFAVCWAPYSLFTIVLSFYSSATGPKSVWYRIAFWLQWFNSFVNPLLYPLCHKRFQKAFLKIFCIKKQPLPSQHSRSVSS
Histamine H3 receptor (Homo sapiens), sequence (Q9Y5N1 whole entry): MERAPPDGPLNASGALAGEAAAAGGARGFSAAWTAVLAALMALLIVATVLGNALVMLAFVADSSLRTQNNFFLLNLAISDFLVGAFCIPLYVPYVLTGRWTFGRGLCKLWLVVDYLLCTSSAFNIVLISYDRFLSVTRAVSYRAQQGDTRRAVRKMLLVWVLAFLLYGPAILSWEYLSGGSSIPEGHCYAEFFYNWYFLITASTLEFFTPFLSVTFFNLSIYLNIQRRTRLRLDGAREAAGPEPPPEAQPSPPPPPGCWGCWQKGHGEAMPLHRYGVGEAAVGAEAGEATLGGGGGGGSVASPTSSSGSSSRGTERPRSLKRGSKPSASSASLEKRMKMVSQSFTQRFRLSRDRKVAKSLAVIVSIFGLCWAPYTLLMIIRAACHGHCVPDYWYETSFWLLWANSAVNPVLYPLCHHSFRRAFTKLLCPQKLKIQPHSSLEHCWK
5-hydroxytryptamine receptor 6 (Homo sapiens), sequence (P50406 whole entry): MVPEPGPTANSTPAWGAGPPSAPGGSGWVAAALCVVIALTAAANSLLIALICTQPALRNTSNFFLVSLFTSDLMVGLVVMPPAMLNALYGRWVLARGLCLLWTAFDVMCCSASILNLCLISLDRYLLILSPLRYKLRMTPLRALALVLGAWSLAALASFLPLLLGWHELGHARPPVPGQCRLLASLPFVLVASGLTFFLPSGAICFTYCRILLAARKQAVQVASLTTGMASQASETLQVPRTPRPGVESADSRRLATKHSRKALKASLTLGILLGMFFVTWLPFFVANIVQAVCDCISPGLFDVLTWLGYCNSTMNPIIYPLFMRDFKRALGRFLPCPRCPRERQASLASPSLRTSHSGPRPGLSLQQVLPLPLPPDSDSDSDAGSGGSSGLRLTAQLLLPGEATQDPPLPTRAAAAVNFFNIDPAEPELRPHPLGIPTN
5-hydroxytryptamine receptor 7 (Homo sapiens), sequence (P34969 whole entry): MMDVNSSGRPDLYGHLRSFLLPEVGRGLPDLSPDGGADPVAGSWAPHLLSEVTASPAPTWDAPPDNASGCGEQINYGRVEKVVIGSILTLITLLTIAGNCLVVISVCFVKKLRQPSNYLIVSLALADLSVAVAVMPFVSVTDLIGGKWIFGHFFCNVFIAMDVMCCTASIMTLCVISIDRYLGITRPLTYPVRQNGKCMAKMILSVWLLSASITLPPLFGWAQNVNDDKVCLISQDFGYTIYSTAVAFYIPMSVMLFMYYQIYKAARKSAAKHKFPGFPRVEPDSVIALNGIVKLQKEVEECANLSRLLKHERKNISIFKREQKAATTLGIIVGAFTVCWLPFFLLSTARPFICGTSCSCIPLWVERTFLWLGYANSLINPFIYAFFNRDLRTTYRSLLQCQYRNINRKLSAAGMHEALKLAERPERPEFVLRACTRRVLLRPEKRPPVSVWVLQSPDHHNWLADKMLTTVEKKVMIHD
5-hydroxytryptamine receptor 1D (Homo sapiens), sequence (P28221 whole entry): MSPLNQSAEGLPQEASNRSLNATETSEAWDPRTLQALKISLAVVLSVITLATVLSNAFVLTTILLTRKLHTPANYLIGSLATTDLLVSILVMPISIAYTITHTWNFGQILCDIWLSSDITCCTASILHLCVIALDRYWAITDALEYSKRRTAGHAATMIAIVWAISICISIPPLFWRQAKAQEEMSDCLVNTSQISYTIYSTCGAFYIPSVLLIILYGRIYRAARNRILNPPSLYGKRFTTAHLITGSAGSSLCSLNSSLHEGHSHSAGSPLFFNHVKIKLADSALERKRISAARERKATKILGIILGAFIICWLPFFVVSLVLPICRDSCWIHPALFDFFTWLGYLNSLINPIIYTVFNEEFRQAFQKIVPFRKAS
Delta-type opioid receptor (Homo sapiens), sequence (P41143 whole entry): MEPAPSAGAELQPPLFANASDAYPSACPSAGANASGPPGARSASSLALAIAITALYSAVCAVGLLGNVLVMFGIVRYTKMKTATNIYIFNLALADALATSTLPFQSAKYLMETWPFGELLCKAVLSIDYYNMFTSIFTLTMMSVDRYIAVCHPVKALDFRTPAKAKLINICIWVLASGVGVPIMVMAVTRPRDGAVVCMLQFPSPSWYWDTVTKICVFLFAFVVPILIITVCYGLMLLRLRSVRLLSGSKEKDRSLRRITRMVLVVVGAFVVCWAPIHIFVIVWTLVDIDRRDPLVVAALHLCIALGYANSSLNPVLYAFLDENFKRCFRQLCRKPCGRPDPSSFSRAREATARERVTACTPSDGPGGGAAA
Sigma intracellular receptor 2 (Homo sapiens), sequence (Q5BJF2 whole entry): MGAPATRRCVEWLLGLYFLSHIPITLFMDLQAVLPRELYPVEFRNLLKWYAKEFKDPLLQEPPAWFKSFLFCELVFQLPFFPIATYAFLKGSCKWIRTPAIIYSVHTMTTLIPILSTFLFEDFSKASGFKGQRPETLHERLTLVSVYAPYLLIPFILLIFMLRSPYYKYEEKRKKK
Muscarinic acetylcholine receptor M3 (Homo sapiens), sequence (P20309 whole entry, looked up): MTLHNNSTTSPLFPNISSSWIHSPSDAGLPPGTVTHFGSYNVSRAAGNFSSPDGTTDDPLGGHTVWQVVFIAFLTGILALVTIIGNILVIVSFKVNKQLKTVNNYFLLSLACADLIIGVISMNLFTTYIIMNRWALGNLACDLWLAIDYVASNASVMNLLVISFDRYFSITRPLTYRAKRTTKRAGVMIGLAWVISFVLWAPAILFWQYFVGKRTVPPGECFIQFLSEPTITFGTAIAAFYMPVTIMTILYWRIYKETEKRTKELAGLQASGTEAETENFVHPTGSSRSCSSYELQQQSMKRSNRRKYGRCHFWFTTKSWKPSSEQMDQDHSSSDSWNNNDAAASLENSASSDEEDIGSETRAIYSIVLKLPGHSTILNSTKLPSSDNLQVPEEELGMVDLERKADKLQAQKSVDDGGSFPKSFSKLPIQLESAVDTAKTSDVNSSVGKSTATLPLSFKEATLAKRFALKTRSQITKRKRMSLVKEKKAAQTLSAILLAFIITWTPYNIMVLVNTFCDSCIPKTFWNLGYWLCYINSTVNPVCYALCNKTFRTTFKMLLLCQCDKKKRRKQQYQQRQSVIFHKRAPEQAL
Beta-3 adrenergic receptor (Homo sapiens), sequence (P13945 whole entry, looked up): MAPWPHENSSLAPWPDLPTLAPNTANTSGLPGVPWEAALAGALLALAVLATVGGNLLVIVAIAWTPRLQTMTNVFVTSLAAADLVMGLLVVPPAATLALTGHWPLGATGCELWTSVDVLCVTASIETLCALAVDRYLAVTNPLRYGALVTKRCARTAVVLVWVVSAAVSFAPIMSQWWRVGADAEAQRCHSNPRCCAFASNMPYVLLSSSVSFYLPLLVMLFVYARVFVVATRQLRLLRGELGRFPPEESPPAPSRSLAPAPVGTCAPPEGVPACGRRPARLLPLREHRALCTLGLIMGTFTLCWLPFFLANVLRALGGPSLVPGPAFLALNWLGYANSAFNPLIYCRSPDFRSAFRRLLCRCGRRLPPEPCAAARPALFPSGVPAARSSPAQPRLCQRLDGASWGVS
Beta-2 adrenergic receptor (Homo sapiens), sequence (P07550 whole entry, looked up): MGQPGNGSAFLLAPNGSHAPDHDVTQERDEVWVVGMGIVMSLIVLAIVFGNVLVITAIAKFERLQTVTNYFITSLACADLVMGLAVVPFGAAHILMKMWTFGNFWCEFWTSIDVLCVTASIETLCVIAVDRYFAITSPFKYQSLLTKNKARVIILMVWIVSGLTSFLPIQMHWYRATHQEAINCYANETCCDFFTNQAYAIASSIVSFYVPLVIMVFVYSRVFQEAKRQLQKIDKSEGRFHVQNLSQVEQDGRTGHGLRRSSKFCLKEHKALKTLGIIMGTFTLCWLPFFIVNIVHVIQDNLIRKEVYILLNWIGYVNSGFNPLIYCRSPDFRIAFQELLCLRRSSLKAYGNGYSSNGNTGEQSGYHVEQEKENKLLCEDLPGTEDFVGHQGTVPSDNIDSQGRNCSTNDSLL

| SMILES | inhibition [1] [%] | inhibition [2] [%] | inhibition [3] [%] | inhibition [4] [%] | inhibition [5] [%] | inhibition [6] [%] | inhibition [7] [%] | inhibition [8] [%] | inhibition [9] [%] | inhibition [10] [%] | inhibition [11] [%] | inhibition [12] [%] | inhibition [13] [%] | inhibition [14] [%] | inhibition [15] [%] | inhibition [16] [%] | inhibition [17] [%] |
| --- | --- | --- | --- | --- | --- | --- | --- | --- | --- | --- | --- | --- | --- | --- | --- | --- | --- |
| CC(C)NCC(O)c1ccc(N)c(C#N)c1 (stereo not given) | 95.5 | -2.53 | -7.31 | 3.66 | 0.52 | 9.46 | -7.04 | 18 | 20.1 | 29.6 | 59.9 |  |  |  |  |  |  |
| CSc1ccc(C(=O)N[C@@H]2CCCC[C@@H]2NC(=O)CNC(=O)c2cc(C(F)(F)F)ccc2NC(=O)NC(C)C)cc1 | 6.71 | 28.4 |  | 4.61 |  | 9.73 | 33.2 |  | 2.72 | 18.9 | 1.5 | 10.8 | 4.07 | 28 |  |  |  |
| CCOC(=O)c1c(C)[nH]c2ccc3c(c12)CN1CCc2cc(OC)ccc2C1O3 (stereo not given) | 23.2 | 11.9 | 69.2 | -2.82 | 29.1 | 28.7 |  | 10.8 | 9.23 | 36.3 | 6.3 | 60 | -2.17 | 56.5 | 36.5 | 14.9 |  |
| C/C(=N\NC(=O)[C@@H]1C(=O)NC[C@H]1c1ccccc1)c1cccc(Br)c1 | -2.57 | -1.51 |  | 7.14 |  | 62.6 | 33.4 | 7.94 | 8.23 | 4.05 | 3.81 | -7.62 |  | 50.1 | -1.53 |  | -9.13 |
| CC[C@@H]1CN2C(=O)N(C)c3nc(-c4ccccc4)[nH]c3C2=N1 | 65.2 | 1.36 | -6.97 | -5.22 | -3.92 | 53.6 | 14.2 | 10.3 | 21.6 | 4.68 | 19.4 | -5.85 | -7.99 | -6.84 |  |  | 9.96 |
| Cc1cc(C(=O)N2Cc3cnn(C)c3Nc3ccccc32)ccc1CNC(=O)N1CCC[C@H]1C(=S)N1CCCN(C)CC1 | -1.47 | 49.6 | 65.2 |  |  | 9.68 | -8.65 |  | 0.75 | -1.48 | -2.29 | 2.87 |  | 12.3 |  |  | 11 |
| COc1ccc(/C=C/CCCCOc2ccc(C(=O)c3cccc(C(=O)O)c3)cc2CCC(=O)O)cc1 |  |  | -5.39 | 10.8 | 4.74 | 33.6 | 3.04 | 29.1 | -2.54 | 2.85 | 30.7 | 29.1 | 46.8 | 22.4 | 1.82 | 31.8 |  |
| C[C@H](CO)Nc1nc(SCc2cccc(Cl)c2F)nc2[nH]c(=O)sc12 | 8.37 | -2.82 |  | 5.16 |  | 7.55 | 15 | -7.23 | -7.53 |  | -1.24 |  |  | 10.8 |  |  | -1.9 |
| CN(C(=O)Cc1ccc(Cl)c(Cl)c1)C(CN1CCCC1)c1cccc(OCC(=O)O)c1 (stereo not given) | -5.04 |  | 9.38 | -7.51 | 13.7 | 42.8 |  | 0.97 | -9.81 | 21.9 | -9.83 | 5.65 | 71.9 | 87.5 | 5.15 |  |  |
| c1ccc(N2CCN(Cc3nc4ccccc4[nH]3)CC2)nc1 |  | 22.3 | -4.76 | 0.89 |  | 6.02 | -9.96 | -0.41 | 33.7 | 1.4 | 17.4 |  | -5.06 | 4.96 |  |  | -1.78 |
| CCCCN(CCCC)C(=O)CN1C[C@@H](c2ccc3c(c2)OCO3)[C@H](C(=O)O)[C@H]1c1ccc(OC)cc1 |  | -7.47 |  | -6.84 | 4.49 | 13.8 |  |  | -7.92 | -0.23 | -9.03 | 2.24 | -0.59 | 0.92 |  | -9.55 |  |
| COc1ccccc1CN[C@H]1C2CCN(CC2)[C@H]1C(c1ccccc1)c1ccccc1 |  |  | 13.3 | 11.3 | 27.6 | 13.4 | -3.39 | 8.17 | -6.37 | 62.5 | -1.7 | 3.23 |  | 9.53 | 11.1 |  |  |
| C[C@H](Cc1cc2c(c(C(N)=O)c1)N(CCCO)CC2)NCCOc1ccccc1OCC(F)(F)F | 99 | 20.8 | -2.64 |  | -6.83 | 36.2 |  |  | 83.6 | 17.6 | 11 | 69.7 |  | 38.8 | 86.5 | 90.2 |  |
| CCCSc1nc(N[C@@H]2C[C@H]2c2ccc(F)c(F)c2)c2nnn([C@@H]3C[C@H](OCCO)[C@@H](O)[C@H]3O)c2n1 | 5.05 | 18.3 |  |  | -2.55 | 10.9 | -3.61 | 7.72 | 16.8 | 63.6 | 49.7 | 41.2 | 17.9 | -2.99 | 11.3 | 48.6 | 2.95 |
